{"source": "patent US8247211B2", "about": "“Glycopeptide antibiotics” (American Cyanamid Company, priority 2001, dated 2012)", "assay_in_all_cases": "In vitro antibacterial evaluation: minimum inhibitory concentration (MIC), broth dilution method", "assay_type_in_all_cases": "cell-based", "key": {"Escherichia coli": {"tested_on": "Escherichia coli", "in_short": "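Broth dilution per NCCLS M7-A2 in Muller-Hinton II […], inoculum 5×10^5 CFU/mL, antibiotic tested over 64-0.06 μg/mL. MIC is taken as the lowest concentration that inhibits growth. Panel includes recent clinical isolates resistant to methicillin, penicillin and/or vancomycin.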"}, "Staphylococcus sp.": {"tested_on": "Staphylococcus sp.", "conditions": "for MIC Staphylococcus aureus (ATCC 29213) / MIC Staphylococcus aureus (GC 1131) / MIC Staphylococcus aureus (GC 3051) / MIC Staphylococcus aureus (GC 3053) / MIC Staphylococcus aureus (GC 4541) / MIC Staphylococcus aureus (GC 4542) / MIC Staphylococcus aureus (GC 4544) / MIC Staphylococcus aureus (GC 4545): broth dilution, 18 hours at 35° C.", "in_short": "(§1)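 An MIC is reported for each organism as the least concentration giving inhibition, using broth dilution over 64-0.06 μg/mL with a 5×10^5 CFU/mL inoculum.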"}, "Enterococcus sp.": {"tested_on": "Enterococcus sp.", "in_short": "as §1"}, "Streptococcus sp.": {"tested_on": "Streptococcus sp.", "in_short": "as §1"}, "[1]": {"conditions": "broth dilution, inoculum 5×10^5 CFU/mL, 18 hours at 35° C."}}, "data": [{"smiles": "CC(c1ccccc1)C1NC(=O)CNC(=O)C(CO)NC(=O)C(C(O)C2CNC(=N)N2C2OC(CO)C(O)C(O)C2O)NC(=O)C(C(O)C2CNC(=N)N2)NC(=O)C(Cc2ccc(OC3OC(CO)C(OC4OC5COC(c6cccc(OCc7ccc([N+](=O)[O-])cc7)c6)OC5C(O)C4O)C(O)C3O)cc2)NC1=O", "note": "(stereo not drawn) [Example 182, Cyclo[glycyl-β-methylphenylalanyl-O-[4-O-[4,6-O-(3-[[(4-nitrophenyl)methoxy]benzylidene]hexopyranosyl]hexopyranosyl]tyrosyl-3-(2-iminoimidazolidin-4-yl)seryl-3-β-hexopyranosyl-2-iminoimidazolidin-4-yl)serylseryl]]", "values": [{"measurement": "MIC Escherichia coli (ATCC 25922)", "setting": "Escherichia coli; strain ATCC 25922", "result": ">64", "unit": "mg/L"}, {"measurement": "MIC Escherichia coli (GC 4559)", "setting": "Escherichia coli; strain GC 4559", "result": ">64", "unit": "mg/L"}, {"measurement": "MIC Escherichi coli (GC 4560)", "setting": "Escherichia coli; strain GC 4560", "result": ">64", "unit": "mg/L"}, {"measurement": "MIC Staphylococcus aureus (ATCC 29213)", "setting": "Staphylococcus sp.; 5×10^5 CFU/mL", "result": ">64", "unit": "mg/L"}, {"measurement": "MIC Staphylococcus aureus (GC 1131)", "setting": "Staphylococcus sp.; 5×10^5 CFU/mL", "result": ">64", "unit": "mg/L"}, {"measurement": "MIC Staphylococcus aureus (GC 3051)", "setting": "Staphylococcus sp.; 5×10^5 CFU/mL", "result": ">64", "unit": "mg/L"}, {"measurement": "MIC Staphylococcus aureus (GC 3053)", "setting": "Staphylococcus sp.; 5×10^5 CFU/mL", "result": ">64", "unit": "mg/L"}, {"measurement": "MIC Staphylococcus aureus (GC 4541)", "setting": "Staphylococcus sp.; 5×10^5 CFU/mL", "result": ">64", "unit": "mg/L"}, {"measurement": "MIC Staphylococcus aureus (GC 4542)", "setting": "Staphylococcus sp.; 5×10^5 CFU/mL", "result": ">64", "unit": "mg/L"}, {"measurement": "MIC Staphylococcus aureus (GC 4544)", "setting": "Staphylococcus sp.; 5×10^5 CFU/mL", "result": ">64", "unit": "mg/L"}, {"measurement": "MIC Staphylococcus aureus (GC 4545)", "setting": "Staphylococcus sp.; 5×10^5 CFU/mL", "result": ">64", "unit": "mg/L"}, {"measurement": "MIC Staphylococcus aureus (ATCC 29213)", "setting": "Staphylococcus sp.; strain ATCC 29213", "result": ">64", "unit": "mg/L"}, {"measurement": "MIC Staphylococcus aureus (GC 1131)", "setting": "Staphylococcus sp.; strain GC 1131", "result": ">64", "unit": "mg/L"}, {"measurement": "MIC Staphylococcus aureus (GC 3051)", "setting": "Staphylococcus sp.; strain GC 3051", "result": ">64", "unit": "mg/L"}, {"measurement": "MIC Staphylococcus aureus (GC 3053)", "setting": "Staphylococcus sp.; strain GC 3053", "result": ">64", "unit": "mg/L"}, {"measurement": "MIC Staphylococcus aureus (GC 4541)", "setting": "Staphylococcus sp.; strain GC 4541", "result": ">64", "unit": "mg/L"}, {"measurement": "MIC Staphylococcus aureus (GC 4542)", "setting": "Staphylococcus sp.; strain GC 4542", "result": ">64", "unit": "mg/L"}, {"measurement": "MIC Staphylococcus aureus-SMITH (GC 4543)", "setting": "Staphylococcus sp.; strain GC 4543", "result": ">64", "unit": "mg/L"}, {"measurement": "MIC Staphylococcus aureus (GC 4544)", "setting": "Staphylococcus sp.; strain GC 4544", "result": ">64", "unit": "mg/L"}, {"measurement": "MIC Staphylococcus aureus (GC 4545)", "setting": "Staphylococcus sp.; strain GC 4545", "result": ">64", "unit": "mg/L"}, {"measurement": "MIC Staphylococcus haemolyticus (GC 4546)", "setting": "Staphylococcus sp.; strain GC 4546", "result": ">64", "unit": "mg/L"}, {"measurement": "MIC Coagulase Negative Staphylococcus (GC 4547)", "setting": "Staphylococcus sp.; strain GC 4547", "result": ">64", "unit": "mg/L"}, {"measurement": "MIC Coagulase Negative Staphylococcus (GC 4548)", "setting": "Staphylococcus sp.; strain GC 4548", "result": ">64", "unit": "mg/L"}, {"measurement": "MIC Coagulase Negative Staphylococcus (GC 4549)", "setting": "Staphylococcus sp.; strain GC 4549", "result": ">64", "unit": "mg/L"}, {"measurement": "MIC Coagulase Negative Staphylococcus (GC 4551)", "setting": "Staphylococcus sp.; strain GC 4551", "result": ">64", "unit": "mg/L"}, {"measurement": "MIC Coagulase Negative Staphylococcus (GC 6257)", "setting": "Staphylococcus sp.; strain GC 6257", "result": ">64", "unit": "mg/L"}, {"measurement": "MIC Enterococcus avium (GC 4558)", "setting": "Enterococcus sp.; [1]", "result": ">64", "unit": "mg/L"}, {"measurement": "MIC Enterococcus faecalis (ATCC 29212)", "setting": "Enterococcus sp.; [1]", "result": ">64", "unit": "mg/L"}, {"measurement": "MIC Enterococcus faecalis (GC 2242)", "setting": "Enterococcus sp.; [1]", "result": ">64", "unit": "mg/L"}, {"measurement": "MIC Enterococcus faecalis (GC 2691)", "setting": "Enterococcus sp.; [1]", "result": ">64", "unit": "mg/L"}, {"measurement": "MIC Enterococcus faecalis (GC 3059)", "setting": "Enterococcus sp.; [1]", "result": ">64", "unit": "mg/L"}, {"measurement": "MIC Enterococcus faecalis (GC 4552)", "setting": "Enterococcus sp.; [1]", "result": ">64", "unit": "mg/L"}, {"measurement": "MIC Enterococcus faecalis (GC 4553)", "setting": "Enterococcus sp.; [1]", "result": ">64", "unit": "mg/L"}, {"measurement": "MIC Enterococcus faecalis (GC 4554)", "setting": "Enterococcus sp.; [1]", "result": ">64", "unit": "mg/L"}, {"measurement": "MIC Enterococcus faecalis (GC 6189)", "setting": "Enterococcus sp.; [1]", "result": ">64", "unit": "mg/L"}, {"measurement": "MIC Enterococcus faecium (GC 2243)", "setting": "Enterococcus sp.; [1]", "result": ">64", "unit": "mg/L"}, {"measurement": "MIC Enterococcus faecium (GC 4556)", "setting": "Enterococcus sp.; [1]", "result": ">64", "unit": "mg/L"}, {"measurement": "MIC Enterococcus faecium (GC 4557)", "setting": "Enterococcus sp.; [1]", "result": ">64", "unit": "mg/L"}, {"measurement": "MIC Enterococcus faecalis (ATCC 29212)", "setting": "Enterococcus sp.; strain ATCC 29212", "result": ">64", "unit": "mg/L"}, {"measurement": "MIC Enterococcus faecalis (GC 2242)", "setting": "Enterococcus sp.; strain GC 2242", "result": ">64", "unit": "mg/L"}, {"measurement": "MIC Enterococcus faecium (GC 2243)", "setting": "Enterococcus sp.; strain GC 2243", "result": ">64", "unit": "mg/L"}, {"measurement": "MIC Enterococcus faecalis (GC 2691)", "setting": "Enterococcus sp.; strain GC 2691", "result": ">64", "unit": "mg/L"}, {"measurement": "MIC Enterococcus faecalis (GC 3059)", "setting": "Enterococcus sp.; strain GC 3059", "result": ">64", "unit": "mg/L"}, {"measurement": "MIC Enterococcus faecalis (GC 4552)", "setting": "Enterococcus sp.; strain GC 4552", "result": ">64", "unit": "mg/L"}, {"measurement": "MIC Enterococcus faecalis (GC 4553)", "setting": "Enterococcus sp.; strain GC 4553", "result": ">64", "unit": "mg/L"}, {"measurement": "MIC Enterococcus faecalis (GC 4554)", "setting": "Enterococcus sp.; strain GC 4554", "result": ">64", "unit": "mg/L"}, {"measurement": "MIC Enterococcus faecium (GC 4556)", "setting": "Enterococcus sp.; strain GC 4556", "result": ">64", "unit": "mg/L"}, {"measurement": "MIC Enterococcus faecium (GC 4557)", "setting": "Enterococcus sp.; strain GC 4557", "result": ">64", "unit": "mg/L"}, {"measurement": "MIC Enterococcus avium (GC 4558)", "setting": "Enterococcus sp.; strain GC 4558", "result": ">64", "unit": "mg/L"}, {"measurement": "MIC Enterococcus faecalis (GC 6189)", "setting": "Enterococcus sp.; strain GC 6189", "result": ">64", "unit": "mg/L"}, {"measurement": "MIC Streptococcus agalactiae (GC 4564)", "setting": "Streptococcus sp.; [1]", "result": 32, "unit": "mg/L"}, {"measurement": "MIC Streptococcus pneumoniae (ATCC 6301)", "setting": "Streptococcus sp.; [1]", "result": 4, "unit": "mg/L"}, {"measurement": "MIC Streptococcus pneumoniae (GC 1894)", "setting": "Streptococcus sp.; [1]", "result": 8, "unit": "mg/L"}, {"measurement": "MIC Streptococcus pneumoniae (GC 4565)", "setting": "Streptococcus sp.; [1]", "result": 8, "unit": "mg/L"}, {"measurement": "MIC Streptococcus pyogenes (GC 4563)", "setting": "Streptococcus sp.; [1]", "result": 64, "unit": "mg/L"}, {"measurement": "MIC Streptococcus pneumoniae (ATCC 6301)", "setting": "Streptococcus sp.; strain ATCC 6301", "result": 4, "unit": "mg/L"}, {"measurement": "MIC Streptococcus pneumoniae (GC 1894)", "setting": "Streptococcus sp.; strain GC 1894", "result": 8, "unit": "mg/L"}, {"measurement": "MIC Streptococcus pyogenes (GC 4563)", "setting": "Streptococcus sp.; strain GC 4563", "result": 64, "unit": "mg/L"}, {"measurement": "MIC Streptococcus agalactiae (GC 4564)", "setting": "Streptococcus sp.; strain GC 4564", "result": 32, "unit": "mg/L"}, {"measurement": "MIC Streptococcus pneumoniae (GC 4565)", "setting": "Streptococcus sp.; strain GC 4565", "result": 8, "unit": "mg/L"}]}]}
